# Data: patent US20070275953A1 (priority 2003, published 2007)
# Read-outs that look alike come from different tables or passages of the source.
# Columns and labels:
# [1] = system: P4 cells; assay: Cytotoxicity (CC50), MTT assay on P4 cells; type: cell-based; conditions: 3 days
# Experimental: (§1) For the antiviral and the cytotoxicity assays, the drugs were diluted in complete DMEM medium. In these experiments, drugs were diluted in triplicate wells in a 96-well plate in six, 5 fold serial dilutions.
# (§2) The 50% cytotoxic concentration (CCso) was determined using a protocol adapted from Pauwels et al. (1988. J. Virol. Methods 20(4):309-21). Briefly, flat bottom 96-well plates were filled with 50 μl of complete medium containing 5.10^3 P4 cells. 2 hours later 50 μl of drug solution were added to the cells. Drugs (dissolved in DMEM, see above) were diluted in six, 5-fold serial dilutions from stock solutions in triplicate wells of a 96-well plate. Cells and compounds were incubated at 37° C. in growth medium for 3 days. Cell viability was determined by MTT assays using the Roche Cell Proliferation KIT. The absorbance (λ=570 nm) was measured on a Benchmark™ Microplate Reader (Biorad) and compared with 12 cell control replicates (no drug added). Each assay was performed at least three times for a total of at least nine replicate wells. This method detects both cytostatic and cytolytic effects of drugs.
# [2] = system: HIV-1 with WT (wild type) RT in PBMC; assay: Anti-HIV assay on PBMC, WT RT (p24); type: cell-based
# Experimental: Wurzburg Jurkat T cells (subclone JR) were transfected with 10 μg of the circularly permuted infectious molecular clone HIVNL4-3 (Adachi et al., 1986. J. Virol, 59 (2), p 284-291). Two days later, co-cultivation with SupT1 cells (a human T-cell lymphoma cell line) was initiated to facilitate rapid production of progeny virions. Production of virus was measured by using the Innotest HIV Antigen mAb p24 kit (Innogenetics). At the peak of production cultures were harvested and filtered. The virus stocks were stored at −80° C. until used.
# Anti-HIV activity of the compounds was tested on Peripheral Blood Mononuclear Cells (PBMCs). These cells were separated from the blood of healthy donor using established procedures. PBMCs were cultured in RPMI medium supplemented with 10% fetal bovine serum (FBS), 1% Penicillin/Streptomycin and 20 U/ml of Interleukin-2.
# PBMCs isolated from the blood of healthy donor contain CD4^+ T-lymphocytes which are one of the main targets of HIV in infected individuals.
# Briefly, in the anti-HIV assay PBMCs, activated with phytohemagglutinin, were infected with HIV-1. 100 μl of infected PBMCs were seeded in 96-well plate at a concentration of 1 10^5 cells/ml, and 100 μl of the different drugs dilutions were added to the cells. After 4 days of incubation at 37° C., 5% CO2, cells cultures supernatants were collected. The amount of the viral capsid protein p24 in the supernatants was measured using the Innotest HIV Antigen mAb P24 kit (Innogenetics).
# [3] = Cytotoxicity (CC50), MTT assay on P4 cells; type: cell-based; conditions: human
# Experimental: as §1, §2
# [4] = system: HIV-1 with WT (wild type) RT in P4 cells; conditions: published values; read-out: Nevirapine activity, published values; cited from earlier work
# [5] = system: HIV-1 mutant Asn103RT in P4 cells; assay: Anti-HIV assay on P4 cells, Asn103RT mutant; type: cell-based
# Text: In order to introduce mutation(s) at the level of the pol gene coding for the RT in the pNL4-3 plasmid containing the complete viral genome (Adachi et al., 1986. J. Virol., Vol. 59 p 284-291) we used the “Quick change mutagenesis kit” (Stratagene). The following mutations were separately introduced in pNL4-3: L100I, K103N, V108I, Y181C, Y188C, and the double mutations K103N/V108I. These mutations were chosen because of the resistance that they confer to existing NNRTI. The production procedure of the mutant viral stocks is identical to the one described above.
# Anti-HIV activity and cytotoxicity of the compounds were tested on a P4 cell line. The P4 cell line (Clavel & Charneau, 1994. J. Virol., Vol. 68 p 1179-1185) was provided by Dr. François Clavel (Unité de recherche antivirale de l'hôpital Xavier Bichat Paris: Inserm). The P4 cells were cultured in complete DMEM medium supplemented with 10% fetal bovine serum (FBS), 0.5% of Penicillin/Streptomycin and G418 at 0.5 mg/ml. Exponentially growing cells were trypsinized, centrifuged and split twice weekly at 5.10^4 cells/ml.
# The P4 cells are HIV-infectible Hela-CD4 cells that carry the bacterial lacZ gene under the control of the HIV-1 long terminal repeat (LTR). In this cell line, transcription of the LacZ gene is driven by the HIV-1 LTR. […]
# Briefly, in the anti-HIV assay 100 Ål of P4 cells were plated in 96-well plate at a concentration of 0.4 10^5 cells/ml and incubated at 37° C., 5% CO2. […] After 48 h of incubation at 37° C., 5% CO2, β-galactosidase activity was measured using chlorophenol red-β-D-galactopyranoside assays.
# The absorbance was measured on a Benchmark™ Microplate Reader (Biorad) (λ=570 nm) and compared with 12 cell control replicates (no virus or drug added) and 12 virus control wells (no drug added). […] The 50% effective concentration (Ec50) was calculated from each dose response curve using the CurveExpert 1.3 software. […]
# [6] = Human immunodeficiency virus 1, read-out: EC50 Asn103RT P4
Compound,CC50 [1] [µM],EC50 [2] [µM],CC50 at 3 days [3] [µM],also measured
"CCOC(=O)c1c(OC2CC(C)CC(C)C2)c(CC)c(C)[nH]c1=O (single isomer, unassigned) [Z37inv]",64,0.054,,
"O=C1Nc2ccc(Cl)cc2[C@@](C#CC2CC2)(C(F)(F)F)O1 [Efavirenz, reference compound]",,,40,
"Cc1ccnc2c1NC(=O)c1cccnc1N2C1CC1 [Nevirapine, reference compound]",,,> 100,"EC50 [4]: 0.01 to 0.1 µM; EC50 [5, 6]: 1.71 µM; EC50 ([2]; Human immunodeficiency virus 1): 0.03 µM"
CCc1c(C)[nH]c(=O)c(CO)c1OC1CC(C)CC(C)C1 (centres unmarked) [Z45inv],76,0.018,,
"CCc1c(C)[nH]c(=O)c([N+](=O)[O-])c1OC1CC(C)CC(C)C1 (centres unmarked) [Z91inv, 3-nitro-5-ethyl-6-methyl-4-[(3,5-dimethylcyclohexyl)oxy]pyridine-2(1H)-one]",,,37.2,"EC50 [5, 6]: 0.089 µM; melting point: 206 to 207 °C; EC50 ([2]; Human immunodeficiency virus 1): < 0.001 µM"
CCc1c(C)[nH]c(=O)c(CSC(C)=O)c1OC1CC(C)CC(C)C1 (centres unmarked) [Z114],8,< 0.001,,"EC50 ([5]; P4, mutant Asn103RT, read-out: EC50 Asn103RT P4): 0.643 µM"
"CCc1c(C)[nH]c(=O)c(N(C)C)c1OC1CC(C)CC(C)C1 (centres unmarked) [Z150, 3-(dimethylamino)-5-ethyl-6-methyl-4-[(3,5-dimethylcyclohexyl)oxy]pyridine-2(1H)-one]",,,66,melting point: 129 to 130 °C
CCc1c(C)[nH]c(=O)c(CN=[N+]=[N-])c1OC1CC(C)CC(C)C1 (centres unmarked) [Z153],54,,,
CCc1c(C)[nH]c(=O)c(C)c1OC1CC(C)CC(C)C1 (centres unmarked) [Z154],80,,,
